The test system of the assay is male Sprague Dawley rats. Kind of assay: Loss of righting reflex in rats. The format is in vivo. Conditions: Rat IV, 5 mpk. The procedure:
Loss of Righting Reflex in Rats
The plasma pharmacokinetics and a qualitative assessment of sedation were obtained in male
Sprague Dawley rats according to the following procedure. Rats were dosed by intravenous bolus dose (60 seconds) via the foot dorsal vein at doses ranging from 5 to 15 mg/kg in an appropriate vehicle. In order to assess sedation, rats were gently restrained by hand to a lateral position for dose administration. […] If the animal was unable to return to an upright position, the time was recorded as the onset of loss of righting reflex (LRR). […] Sluggish or incomplete righting twice consecutively within a 30 second interval qualifies as a loss of righting reflex. After onset of LRR, animals were assessed every 5 minutes in the same manner. Recovery of righting reflex is defined as the ability of a rat to right itself completely within 20 seconds of being placed in dorsal recumbency. The duration of LRR is defined as the time interval between LRR and the return of righting reflex.

As for `C[C@@]1(O)CC[C@H]2[C@H](CC[C@@H]3[C@@H]2CC[C@]2(C)[C@@H](C(=O)Cn4cc(C#N)cn4)CC[C@@H]32)C1` [SA-4], the “Duration of Rat LRR” value is given as “C (>60 min)”.
The result for `Cc1cnn(CC(=O)[C@H]2CC[C@H]3[C@@H]4CC[C@@H]5C[C@](C)(O)CC[C@@H]5[C@H]4CC[C@]23C)c1` [SA-6] reads “A (<15 min)”.

These data come from patent US12201640B2, “19-nor C3,3-disubstituted C21-n-pyrazolyl steroids and methods of use thereof” (Sage Therapeutics, Inc., priority 2013, dated 2025).
